Assay results reported in patent publication US20040161426A1, “Use of IL-6 antagonists in combination with steroids to enhance apoptosis” (priority 2003, published 2004).

Experiments:
RPMI 8226 cells = experiment: Dexamethasone-induced apoptosis, Tunel assay with flow cytometry; assay type: cell-based, human; details: for % Apoptosis Mean ± SEM: 48 h; for level of apoptosis (cells undergoing apoptosis): representative experiment
Experimental: The cell line RPMI 8226, a human multiple myeloma cell line, was purchased from ATCC (Rockville, Md.). Cells were grown and maintained according to ATCC instructions in complete RPMI medium containing 10% FBS, 1% NEAA, 1% L-glutamine and 1% sodium pyruvate.
Chimeric CLB8 (cCLB8) (Centocor, Malvern, Pa.) was used at three different concentrations in the assay. Another a chimeric human-mouse IgG, c171A, also developed at Centocor was used as a negative control antibody.
[…] After the incubation, cells were harvested and the Tunel assay (Tdt-mediated dUTP-FITC nick end labeling) as disclosed in Gavrieli et al., “Identification of Programmed Cell Death in situ Via Specific Labelling of Nuclear DNA Fragmentation”, […] 119:493-501, 1992 was used to measure apoptosis with minor modifications. Briefly, after the 48-hour incubation described above, approximately 10^6 cells were harvested, washed twice, and fixed with 1% paraformaldehyde for 15 minutes. After washing, the cells were permeabilized with 0.1% Triton (Sigma, St. Louis, Mo.) for 5 minutes and washed twice. The labeling reaction was performed in a heating block at 37° C. for 1 hour with 0.3 nM FITC-12-dUTP (Boehringer Mannheim, Indianapolis, Ind.), 2.5 mM CoCI2, 12.5 U Tdt, and 5 microL of 5×Tdt Buffer (Boehringer Mannheim) in a total volume of 50 microL. Cells were analyzed by flow cytometry.
After completing the Tunel assay, cells were washed twice and analyzed on a FACS Calibur flow cytometer (Becton Dickinson Immunocytometry Systems, San Jose, Calif.) equipped with a 15-mW air-cooled 488-nm argon laser. Gating to exclude debris was based upon diminished forward scatter (FSC) and side scatter (SSC). A minimum of 10,000 events was collected per sample and all analyses were performed with CELLQuest software (Becton Dickinson Immunocytometry Systems, San Jose, Calif.).

IL-6 = target: T1, IL-6 (Homo sapiens, UniProt P05231); details: multiple myeloma patients after cCLB8 administration; cited from earlier work
T1 construct: host or cells: patients (endogenous IL-6)
T1 sequence (P05231 30-212): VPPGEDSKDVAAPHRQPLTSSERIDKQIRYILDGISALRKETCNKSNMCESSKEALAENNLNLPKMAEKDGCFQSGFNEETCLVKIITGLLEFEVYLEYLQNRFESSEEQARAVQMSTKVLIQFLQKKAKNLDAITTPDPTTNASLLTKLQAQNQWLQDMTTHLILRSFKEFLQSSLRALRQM

Question: For `C[C@@H]1C[C@H]2[C@@H]3CCC4=CC(=O)C=C[C@]4(C)[C@@]3(F)[C@@H](O)C[C@]2(C)[C@@]1(O)C(=O)CO` [Dexamethasone, reference compound], which “% Apoptosis Mean ± SEM” value (RPMI 8226 cells; RPMI 8226 cells, DEX 10-6 alone) is on record?
Answer: % 46 ± 4

Question: And the “% Apoptosis Mean ± SEM” value (RPMI 8226 cells; RPMI 8226 cells, DEX + IL-6 100 pg)?
Answer: % 27 ± 9

Question: And the “level of apoptosis (cells undergoing apoptosis)” value (shortened to “level of apoptosis”) (RPMI 8226 cells; FIG. 1A, dexamethasone 1 microM, 48 hrs)?
Answer: 45%

Question: And the “level of apoptosis” value (RPMI 8226 cells; FIG. 1B, dexamethasone in the presence of IL-6)?
Answer: 20%

Question: With “cCLB8: chimerized form of the murine anti-IL-6 monoclonal antibody CLB-6/8 (Centocor)” as the molecule, how does the “% Apoptosis Mean ± SEM” value (RPMI 8226 cells; RPMI 8226 cells, DEX + IL-6 + CNTO 328 100 ng) read?
Answer: % 45 ± 11

Question: And the “% Apoptosis Mean ± SEM” value (RPMI 8226 cells; RPMI 8226 cells, DEX + IL-6 + CNTO 328 1 ug)?
Answer: % 54 ± 2.5

Question: And the “neutralization of the inhibitory effect of IL-6 on dexamethasone-induced apoptosis” value (RPMI 8226 cells; RPMI 8226 cells, P<0.02)?
Answer: neutralized the inhibitory effect of IL-6 on dexamethasone-induced apoptosis in a dose dependent manner

Question: What about the “promotion of cellular apoptosis, combination versus single agents” value (RPMI 8226 cells; combination of dexamethasone and cCLB8) of the same molecule?
Answer: superior to treatment with either agent alone

Question: And the “level of apoptosis” value (RPMI 8226 cells; FIG. 1C, dexamethasone in the presence of both IL-6 and cCLB8)?
Answer: 60%

Question: And the “circulating levels of sIL6R and sgp130” value (IL-6)?
Answer: remained unchanged

Question: What about the “serum IL-6 activity” value (IL-6) of the same molecule?
Answer: total blockage of serum IL-6 activity

Question: Which “IL-6 concentration inhibiting dexamethasone-induced apoptosis” value (RPMI 8226 cells; RPMI 8226 cells, dexamethasone 1 microM) does the source give for “IL-6: 22-27 kDa secreted glycoprotein cytokine interleukin 6 [reference compound]” here?
Answer: higher than 100 ng/mL
